Reference: article PMC11233931, “Remodeling tumor‐associated macrophage for anti‐cancer effects by rational design of irreversible inhibition of mitogen‐activated protein kinase‐activated protein kinase 2” (MedComm, 2024)

Legend:
Experiment in all cases: Eurofins kinase selectivity profile against 380 other human recombinant kinases (Table S2)
Format in all cases: biochemical
[1] = biological target: T1, 380 human recombinant protein kinases (Homo sapiens, UniProt Q9UQ07); details: MOK(h), read-out: Inhibition rate
T1 construct: purchased Eurofins (Celle Lévescault)
T1 sequence (Q9UQ07 1-419): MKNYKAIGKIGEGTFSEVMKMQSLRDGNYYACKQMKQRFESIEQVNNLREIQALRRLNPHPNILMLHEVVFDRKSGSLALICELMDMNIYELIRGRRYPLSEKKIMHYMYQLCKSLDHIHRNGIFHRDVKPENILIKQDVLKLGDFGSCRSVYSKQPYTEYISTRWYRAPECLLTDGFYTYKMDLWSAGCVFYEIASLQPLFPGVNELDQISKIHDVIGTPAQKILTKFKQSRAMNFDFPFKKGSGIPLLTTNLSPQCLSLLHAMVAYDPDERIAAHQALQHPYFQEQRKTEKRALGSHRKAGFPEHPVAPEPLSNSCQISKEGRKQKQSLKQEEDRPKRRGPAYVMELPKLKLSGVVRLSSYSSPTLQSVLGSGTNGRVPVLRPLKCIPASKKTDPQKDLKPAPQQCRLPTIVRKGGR
In short: (§1)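 Profiling against 380 human recombinant kinases carried out by Eurofins at various compound concentrations.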

[2] = biological target: T2, 380 human recombinant protein kinases (Homo sapiens, UniProt P09619); details: PDGFRβ(h), read-out: Inhibition rate
T2 construct: purchased Eurofins (Celle Lévescault)
T2 sequence (P09619 33-1106): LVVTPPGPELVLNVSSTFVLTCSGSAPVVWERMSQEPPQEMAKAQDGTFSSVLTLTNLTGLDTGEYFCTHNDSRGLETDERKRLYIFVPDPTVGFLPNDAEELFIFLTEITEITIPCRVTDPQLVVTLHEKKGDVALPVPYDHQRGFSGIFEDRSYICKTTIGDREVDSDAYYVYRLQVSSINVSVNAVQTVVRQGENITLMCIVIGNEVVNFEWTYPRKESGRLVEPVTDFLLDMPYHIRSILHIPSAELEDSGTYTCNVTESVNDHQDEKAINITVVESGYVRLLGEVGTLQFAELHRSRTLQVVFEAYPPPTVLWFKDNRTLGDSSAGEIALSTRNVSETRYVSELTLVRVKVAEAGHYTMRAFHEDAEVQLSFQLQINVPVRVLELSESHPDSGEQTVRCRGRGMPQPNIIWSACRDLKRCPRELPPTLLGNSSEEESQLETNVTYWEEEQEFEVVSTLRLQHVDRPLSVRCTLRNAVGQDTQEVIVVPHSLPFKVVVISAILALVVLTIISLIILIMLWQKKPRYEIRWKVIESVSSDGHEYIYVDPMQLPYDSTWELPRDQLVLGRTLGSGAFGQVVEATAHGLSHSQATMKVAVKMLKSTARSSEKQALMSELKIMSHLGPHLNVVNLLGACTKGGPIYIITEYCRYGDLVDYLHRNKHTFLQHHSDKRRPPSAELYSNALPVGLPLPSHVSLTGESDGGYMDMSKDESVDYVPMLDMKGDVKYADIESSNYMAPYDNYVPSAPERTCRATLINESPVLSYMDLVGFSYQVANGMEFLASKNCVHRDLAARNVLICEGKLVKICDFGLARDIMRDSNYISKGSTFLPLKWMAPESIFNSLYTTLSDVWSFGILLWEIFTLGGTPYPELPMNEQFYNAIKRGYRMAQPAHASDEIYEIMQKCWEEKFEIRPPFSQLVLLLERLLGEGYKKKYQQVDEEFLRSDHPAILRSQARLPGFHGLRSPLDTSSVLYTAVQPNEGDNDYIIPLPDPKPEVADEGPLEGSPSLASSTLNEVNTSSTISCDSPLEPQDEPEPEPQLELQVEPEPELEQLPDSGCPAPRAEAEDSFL
In short: as §1

[3] = biological target: T3, 380 human recombinant protein kinases (Homo sapiens, UniProt O43781); details: DYRK3(h), read-out: Inhibition rate
T3 construct: purchased Eurofins (Celle Lévescault)
T3 sequence (O43781 1-588): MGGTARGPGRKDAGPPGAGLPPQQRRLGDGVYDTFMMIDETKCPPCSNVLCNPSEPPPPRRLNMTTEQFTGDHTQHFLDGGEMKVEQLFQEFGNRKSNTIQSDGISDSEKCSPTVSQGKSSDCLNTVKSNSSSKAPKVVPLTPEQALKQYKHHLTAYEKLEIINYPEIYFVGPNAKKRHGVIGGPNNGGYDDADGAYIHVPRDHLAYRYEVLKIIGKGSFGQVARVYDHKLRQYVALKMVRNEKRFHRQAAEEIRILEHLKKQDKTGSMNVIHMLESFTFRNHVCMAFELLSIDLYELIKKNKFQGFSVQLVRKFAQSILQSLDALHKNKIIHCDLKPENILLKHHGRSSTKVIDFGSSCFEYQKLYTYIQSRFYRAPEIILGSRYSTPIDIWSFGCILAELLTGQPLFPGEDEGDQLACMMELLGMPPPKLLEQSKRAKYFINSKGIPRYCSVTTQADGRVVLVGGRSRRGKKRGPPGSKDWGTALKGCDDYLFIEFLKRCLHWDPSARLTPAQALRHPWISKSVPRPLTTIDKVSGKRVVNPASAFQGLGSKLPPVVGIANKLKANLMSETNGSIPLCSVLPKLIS
In short: as §1

[4] = biological target: T4, 380 human recombinant protein kinases (Homo sapiens, UniProt P28482); details: MAPK2(h), read-out: Inhibition rate
T4 construct: purchased Eurofins (Celle Lévescault)
T4 sequence (P28482 whole entry): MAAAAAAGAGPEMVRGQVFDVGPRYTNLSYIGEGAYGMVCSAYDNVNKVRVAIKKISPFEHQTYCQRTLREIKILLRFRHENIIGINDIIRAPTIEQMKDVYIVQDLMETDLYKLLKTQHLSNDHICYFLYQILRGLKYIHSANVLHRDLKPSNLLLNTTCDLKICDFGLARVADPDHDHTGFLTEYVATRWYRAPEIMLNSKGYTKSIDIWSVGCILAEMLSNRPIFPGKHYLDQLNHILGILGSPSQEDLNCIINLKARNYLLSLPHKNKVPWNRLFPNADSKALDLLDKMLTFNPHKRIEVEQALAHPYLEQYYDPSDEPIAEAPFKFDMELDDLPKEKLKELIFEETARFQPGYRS
In short: as §1

Q: How did the inhibition at 0.01 µM ([1]; 10 nM) turn out when `C=CC(=O)Nc1cc(-c2cc(-c3cc4c([nH]3)CCNC4=O)ccn2)ccc1OC(F)(F)F` [compound 11] was run?
A: 11%

Q: And the inhibition at 0.1 µM ([1]; 100 nM)?
A: 7%

Q: What about the inhibition at 1 µM ([1]; 1000 nM) of the same molecule?
A: 2%

Q: What about the inhibition at 0.01 µM ([2]; 10 nM) of the same molecule?
A: 0%

Q: What about the inhibition at 0.1 µM ([2]; 100 nM) of the same molecule?
A: -16%

Q: And the inhibition at 1 µM ([2]; 1000 nM)?
A: -11%

Q: What about the inhibition at 0.01 µM ([3]; 10 nM) of the same molecule?
A: 34%

Q: And the inhibition at 0.1 µM ([3]; 100 nM)?
A: 83%

Q: And the inhibition at 1 µM ([3]; 1000 nM)?
A: 95%

Q: What about the inhibition at 0.01 µM ([4]; 10 nM) of the same molecule?
A: -5%

Q: And the inhibition at 0.1 µM ([4]; 100 nM)?
A: -7%

Q: What about the inhibition at 1 µM ([4]; 1000 nM) of the same molecule?
A: 13%
